Source: patent publication US11173119B2 (YALE UNIVERSITY, priority 2012, dated 2021)

Columns and labels:
B16 melanomas = assay: In vivo subcutaneous tumor studies, intratumoral nanolipogel therapy; parameters: species or system B6 albino mice
Description: B16-F10 cells (ATCC) were cultured in DMEM (Gibco) and suspended at 2×10^6 cells/mL in 1×PBS (kept on ice) directly prior to injection. For subcutaneous tumor studies, female 6-8 week-old B6 albino mice were sedated with AErrane (isofluorane; Baxter) and the right hind flank was shaved prior to a subcutaneous injection of 50 μL of the cellular suspension. Tumors were monitored and treatment began when the average tumor area reached approximately 5.5 mm^2 (8-10 days after B16 injection; mice were rearranged to normalize tumor sizes across groups).
Observers were blinded for tumor area and survival studies. […] Five mice per group were euthanized at different timepoints and tumors were extracted and weighed.

Splenocytes = assay: IL-2 bioactivity study (splenocyte stimulation, IFN-γ ELISA); type: cell-based, B6 mouse; conditions: IFN-γ production correlated with IL-2 concentration
Description: Splenocytes were isolated from a B6 mouse and 1×10^6 cells were added in 500 μL T cell media to each well of a 24 well plate previously coated with 10 μg/mL anti-CD3 (coated overnight in 1×PBS at 4° C.) and 5 μg/mL soluble anti-CD28 (BD Biosciences). The media from release studies was filtered through a 0.22-μm syringe filter (Whatman) and 500 μL was added to the wells. Additionally all wells contained 5 μg/mL, soluble anti-CD28 (BD Biosciences). […] Cells were incubated at 37° C. and cellular stimulation was assessed after 72 hours using an IFN-γ ELISA (BD Biosciences).

[1] = cited from earlier work
B16 lung metastases = assay: Metastatic B16 lung tumor study, intravenous nanolipogel therapy; type: in vivo, B6 mice; conditions: two weeks after initial treatment
Description: Metastatic B16 melanomas were established in female 6-8 week old B6 mice by intravenous (tail vein) administration of 50 μL of B16 cellular suspension as described by Gorelik, et al. Nat Med 7, 1118-1122 (2001). […] After sacrifice, the chest cavity was exposed and the lungs perfused by making a small incision in the right atrium and injecting 10 mL of cold PBS into the right ventricle. Lung metastates were counted by blinded observers who recorded dark circular masses ranging from 0.1-3 mm as unique tumors.

Cc1cccc(-c2[nH]c(C(C)(C)C)nc2-c2ccc3c(c2)OCO3)n1.Cl [SB, 2-(5-benzo[1,3]dioxol-5-yl-2-tert-butyl-3H-imidazol-4-yl)-6-methylpyridine hydrochloride]
survival (B16 melanomas; intratumoral): did not improve survival
tumor growth (tumor area versus time) (B16 melanomas; weekly intratumoral administration): failed to delay tumor growth
bioactivity after lipogel incorporation (Splenocytes): unaffected
Log P [1]: 4.33
number of lung tumors (B16 lung metastases): failed to reduce the number of lung tumors
